Test results taken from patent US12202835B2, “Substituted aromatic ring-linked dioxinoquinazolines and dioxinoquinolines as kinase inhibitors” (BEIJING SCITECH-MQ PHARMACEUTICALS LIMITED, priority 2018, dated 2025).

Legend:
c-MET kinase = c-MET kinase (Homo sapiens (Human), UniProt P08581); experiment: Assay of small molecular compounds for inhibiting the activity of c-MET kinase (LANCE TR-FRET); format: biochemical; conditions: read-out: CMET IC50
Outline: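 LANCE TR-FRET assay with c-MET at 1 nM final after a 5 min room-temperature preincubation with compound (11-point, 3-fold series, 2500–0.042 nM final, 4% DMSO). ULight-JAK-1 (Tyr1023) peptide (100 nM final) and ATP (10 μM final) reacted 60 min in the dark. Inhibition was taken relative to controls, then IC50 fitted.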

VEGFR-2 kinase = VEGFR-2 kinase (Homo sapiens (Human), UniProt P35968); experiment: Assay of small molecular compounds for inhibiting the activity of VEGFR-2 kinase (LANCE TR-FRET); format: biochemical; conditions: read-out: VEGFR2 IC50
Outline: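 LANCE TR-FRET with human VEGFR-2 (2× stock 0.5 nM) preincubated 30 min with compound (final 2500 to 0.042 nM, 11-point 3-fold), then ULight-JAK-1 (Tyr1023) peptide/ATP added (4× stocks 200 nM/40 μM). Reaction 60 min room temperature, 4% DMSO; IC50 from inhibition-rate curve.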

Ba/F3-AXL cells = experiment: Assay for inhibiting the proliferation of Ba/F3-AXL cells (CCK-8); format: cell-based; conditions: 72 hours of incubation, medium with 100 ng/mL hGas6, CCK-8
Protocol: The values were then imported into Graphpad Prism 5 software for curve fitting, and IC50 was calculated.

Chain of c-MET kinase (P08581 25-1390): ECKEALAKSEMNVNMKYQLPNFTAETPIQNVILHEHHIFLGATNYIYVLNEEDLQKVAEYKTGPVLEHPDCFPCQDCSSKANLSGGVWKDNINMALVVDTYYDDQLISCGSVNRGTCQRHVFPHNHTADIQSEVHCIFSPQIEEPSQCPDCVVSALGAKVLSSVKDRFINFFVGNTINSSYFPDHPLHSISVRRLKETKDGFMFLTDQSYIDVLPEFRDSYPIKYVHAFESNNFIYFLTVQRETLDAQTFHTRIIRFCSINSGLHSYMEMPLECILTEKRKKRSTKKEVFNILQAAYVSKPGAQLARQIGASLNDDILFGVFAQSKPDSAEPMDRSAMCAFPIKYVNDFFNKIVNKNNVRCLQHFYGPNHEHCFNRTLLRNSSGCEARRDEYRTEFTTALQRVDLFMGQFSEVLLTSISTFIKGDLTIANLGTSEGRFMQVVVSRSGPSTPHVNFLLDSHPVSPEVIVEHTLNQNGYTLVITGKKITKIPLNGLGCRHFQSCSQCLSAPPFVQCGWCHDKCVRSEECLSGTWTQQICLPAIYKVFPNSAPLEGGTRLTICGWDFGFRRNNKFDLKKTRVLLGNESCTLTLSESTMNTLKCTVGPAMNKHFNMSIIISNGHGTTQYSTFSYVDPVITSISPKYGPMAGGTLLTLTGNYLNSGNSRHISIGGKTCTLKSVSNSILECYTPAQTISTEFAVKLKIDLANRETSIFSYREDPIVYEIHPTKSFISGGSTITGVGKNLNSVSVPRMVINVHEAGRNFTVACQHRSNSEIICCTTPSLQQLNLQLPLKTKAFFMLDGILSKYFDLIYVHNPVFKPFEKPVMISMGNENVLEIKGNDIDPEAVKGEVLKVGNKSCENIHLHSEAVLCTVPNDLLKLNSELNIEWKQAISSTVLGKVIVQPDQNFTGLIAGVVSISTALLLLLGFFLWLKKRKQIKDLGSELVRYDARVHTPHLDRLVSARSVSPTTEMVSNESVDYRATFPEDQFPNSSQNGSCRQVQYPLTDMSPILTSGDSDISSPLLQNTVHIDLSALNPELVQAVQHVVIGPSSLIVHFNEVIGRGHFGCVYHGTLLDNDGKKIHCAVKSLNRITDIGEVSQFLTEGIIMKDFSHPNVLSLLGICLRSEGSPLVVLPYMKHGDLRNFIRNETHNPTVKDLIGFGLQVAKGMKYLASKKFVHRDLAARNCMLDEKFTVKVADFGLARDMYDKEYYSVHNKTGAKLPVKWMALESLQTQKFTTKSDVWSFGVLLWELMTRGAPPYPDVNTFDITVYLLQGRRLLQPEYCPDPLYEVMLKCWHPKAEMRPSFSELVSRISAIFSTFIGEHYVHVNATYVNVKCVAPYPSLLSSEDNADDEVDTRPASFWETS
Chain of VEGFR-2 kinase (P35968 20-1356): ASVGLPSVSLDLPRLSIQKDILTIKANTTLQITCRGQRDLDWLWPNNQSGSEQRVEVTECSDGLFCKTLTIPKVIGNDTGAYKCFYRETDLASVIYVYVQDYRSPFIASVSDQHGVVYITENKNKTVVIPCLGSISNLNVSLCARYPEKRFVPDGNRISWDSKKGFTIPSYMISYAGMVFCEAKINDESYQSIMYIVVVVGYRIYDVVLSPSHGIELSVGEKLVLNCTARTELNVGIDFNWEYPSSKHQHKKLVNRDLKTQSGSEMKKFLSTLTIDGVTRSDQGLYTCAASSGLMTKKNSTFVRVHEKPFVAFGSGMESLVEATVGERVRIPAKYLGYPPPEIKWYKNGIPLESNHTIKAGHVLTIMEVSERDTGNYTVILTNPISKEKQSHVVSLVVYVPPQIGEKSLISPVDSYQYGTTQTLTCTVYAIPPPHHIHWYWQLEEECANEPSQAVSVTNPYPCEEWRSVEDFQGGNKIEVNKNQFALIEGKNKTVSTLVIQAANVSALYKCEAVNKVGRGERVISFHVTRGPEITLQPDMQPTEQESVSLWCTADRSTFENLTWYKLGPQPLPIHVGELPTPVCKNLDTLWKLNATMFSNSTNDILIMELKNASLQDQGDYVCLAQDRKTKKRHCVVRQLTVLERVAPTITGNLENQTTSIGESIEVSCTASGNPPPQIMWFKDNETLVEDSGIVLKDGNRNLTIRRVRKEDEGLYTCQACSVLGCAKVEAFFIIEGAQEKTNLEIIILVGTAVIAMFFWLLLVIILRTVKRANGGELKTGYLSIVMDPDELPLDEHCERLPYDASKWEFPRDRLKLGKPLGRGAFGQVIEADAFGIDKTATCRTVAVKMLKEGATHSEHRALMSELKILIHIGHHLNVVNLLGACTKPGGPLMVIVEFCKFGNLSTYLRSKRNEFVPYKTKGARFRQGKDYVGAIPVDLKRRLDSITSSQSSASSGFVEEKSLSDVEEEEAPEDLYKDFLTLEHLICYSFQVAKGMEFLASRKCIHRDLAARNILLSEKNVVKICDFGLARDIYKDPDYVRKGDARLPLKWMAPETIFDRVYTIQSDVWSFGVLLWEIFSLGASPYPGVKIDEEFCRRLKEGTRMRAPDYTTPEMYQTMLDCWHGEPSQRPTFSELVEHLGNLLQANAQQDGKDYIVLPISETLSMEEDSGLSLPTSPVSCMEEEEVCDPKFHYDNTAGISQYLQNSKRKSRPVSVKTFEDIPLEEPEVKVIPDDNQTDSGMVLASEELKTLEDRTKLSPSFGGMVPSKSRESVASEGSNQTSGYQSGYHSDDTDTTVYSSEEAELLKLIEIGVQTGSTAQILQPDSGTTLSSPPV

IC50 (c-MET kinase) [nM]	IC50 (VEGFR-2 kinase) [nM]	IC50 (Ba/F3-AXL cells) [nM]	Compound
≤ 50	≤ 50	< 50	O=C(Nc1ccc(Oc2ncnc3cc(OCCCN4CCOCC4)c4c(c23)OCCO4)c(F)c1)c1cccn(-c2ccc(F)cc2)c1=O [Example 4, N-(3-fluoro-4-((5-(3-morpholinopropoxy)-2,3-dihydro-[1,4]dioxino[2,3-f]quinazolin-10-yl)oxy)phenyl)-1-(4-fluorophenyl)-2-oxo-1,2-dihydropyridine-3-carboxamide]
≤ 50	500 to 5000	< 50	COc1cc2nccc(Oc3ccc(NC(=O)c4cn(CCF)c(=O)n(-c5ccc(F)cc5)c4=O)cc3F)c2c2c1OCCO2 [Example 101, N-(3-fluoro-4-((5-methoxy-2,3-dihydro-[1,4]dioxino[2,3-f]quinolin-10-yl)oxy)phenyl)-3-(4-fluorophenyl)-1-(2-fluoroethyl)-2,4-dioxo-1,2,3,4-tetrahydropyrimidine-5-carboxamide]
≤ 50	50 to 500	< 50	CCOc1ccn(-c2ccc(F)cc2)c(=O)c1C(=O)Nc1ccc(Oc2ccnc3cc(OCCCC#N)c4c(c23)OCCO4)cc1Cl [Example 134, N-(2-chloro-4-((5-(3-cyanopropoxy)-2,3-dihydro-[1,4]dioxino[2,3-f]quinolin-10-yl)oxy)phenyl)-1-(4-fluorophenyl)-4-ethoxy-2-oxo-1,2-dihydropyridine-3-carboxamide]
≤ 50		< 50	CC(C)n1cc(C(=O)Nc2ccc(Oc3ccnc4cc(OCCCN5CCOCC5)c5c(c34)OCCO5)c(F)c2)c(=O)n(-c2ccc(F)cc2)c1=O [Example 16, N-(3-fluoro-4-((5-(3-morpholinopropoxy)-2,3-dihydro-[1,4]dioxino[2,3-f]quinolin-10-yl)oxy)phenyl)-3-(4-fluorophenyl)-1-isopropyl-2,4-dioxo-1,2,3,4-tetrahydropyrimidine-5-carboxamide]
≤ 50	50 to 500		O=C(Nc1ccc(Oc2ccnc3ccc4c(c23)OCCO4)c(F)c1)c1cccn(-c2ccc(F)cc2)c1=O [Example 169, N-(4-((2,3-dihydro-[1,4]dioxino[2,3-f]quinolin-10-yl)oxy)-3-fluorophenyl)-1-(4-fluorophenyl)-2-oxo-1,2-dihydropyridine-3-carboxamide]
≤ 50	50 to 500		Cn1cc(C(=O)Nc2ccc(Oc3ccnc4cc(OCCCN5CCCCC5)c5c(c34)OCCO5)cc2Cl)c(=O)n(-c2ccc(F)cc2)c1=O [Example 137, N-(2-chloro-4-((5-((3-piperidin-1-yl)propoxy)-2,3-dihydro-[1,4]dioxino[2,3-f]quinolin-10-yl)oxy)phenyl)-3-(4-fluorophenyl)-1-methyl-2,4-dioxo-1,2,3,4-tetrahydropyrimidine-5-carboxamide]
50 to 500	500 to 5000		CC(C)n1cc(C(=O)Nc2ccc(Oc3ccnc4cc(OCCCN5CCOCC5)c5c(c34)OCCO5)c(Cl)c2)c(=O)n(-c2ccc(F)cc2)c1=O [Example 97, N-(3-chloro-4-((5-(3-morpholinopropoxy)-2,3-dihydro-[1,4]dioxino[2,3-f]quinolin-10-yl)oxy)phenyl)-3-(4-fluorophenyl)-1-isopropyl-2,4-dioxo-1,2,3,4-tetrahydropyrimidine-5-carboxamide]
≤ 50	500 to 5000		CCn1cc(C(=O)Nc2ccc(Oc3ccnc4cc(OCCOC)c5c(c34)OCCO5)cc2F)c(=O)n(-c2ccc(F)cc2)c1=O [Example 156, N-(2-fluoro-4-((5-(2-methoxyethoxy)-2,3-dihydro-[1,4]dioxino[2,3-f]quinolin-10-yl)oxy)phenyl)-3-(4-fluorophenyl)-1-ethyl-2,4-dioxo-1,2,3,4-tetrahydropyrimidine-5-carboxamide]
≤ 50	500 to 5000		CCOc1ccn(-c2ccc(F)cc2)c(=O)c1C(=O)Nc1ccc(Oc2ccnc3ccc4c(c23)OCCO4)cc1F [Example 171, N-(4-((2,3-dihydro-[1,4]dioxino[2,3-f]quinolin-10-yl)oxy)-2-fluorophenyl)-1-(4-fluorophenyl)-4-ethoxy-2-oxo-1,2-dihydropyridine-3-carboxamide]
≤ 50	50 to 500		CC(C)(O)COc1cc2nccc(Oc3ccc(NC(=O)c4cccn(-c5ccc(F)cc5)c4=O)c(Cl)c3)c2c2c1OCCO2 [Example 139, N-(2-chloro-4-((5-(2-hydroxy-2-methylpropoxy)-2,3-dihydro-[1,4]dioxino[2,3-f]quinolin-10-yl)oxy)phenyl)-1-(4-fluorophenyl)-2-oxo-1,2-dihydropyridine-3-carboxamide]
≤ 50	500 to 5000		COc1cc2ncnc(Oc3ccc(NC(=O)c4cn(C)c(=O)n(-c5ccc(F)cc5)c4=O)cc3F)c2c2c1OCCO2 [Example 29, N-(3-fluoro-4-((5-methoxy-2,3-dihydro-[1,4]dioxino[2,3-f]quinazolin-10-yl)oxy)phenyl)-3-(4-fluorophenyl)-1-methyl-2,4-dioxo-1,2,3,4-tetrahydropyrimidine-5-carboxamide]
≤ 50	500 to 5000		COc1cc2nccc(Oc3ccc(NC(=O)c4cn(C)c(=O)n(-c5ccc(F)cc5)c4=O)cc3)c2c2c1OCCO2 [Example 145, N-(4-((5-methoxy-2,3-dihydro-[1,4]dioxino[2,3-f]quinolin-10-yl)oxy)phenyl)-3-(4-fluorophenyl)-1-methyl-2,4-dioxo-1,2,3,4-tetrahydropyrimidine-5-carboxamide]
≤ 50	500 to 5000		CCn1cc(C(=O)Nc2ccc(Oc3ccnc4cc(OCC(C)(C)O)c5c(c34)OCCO5)cc2)c(=O)n(-c2ccc(F)cc2)c1=O [Example 150, N-(4-((5-(2-hydroxy-2-methylpropoxy)-2,3-dihydro-[1,4]dioxino[2,3-f]quinolin-10-yl)oxy)phenyl)-3-(4-fluorophenyl)-1-ethyl-2,4-dioxo-1,2,3,4-tetrahydropyrimidine-5-carboxamide]
≤ 50	≤ 50		O=C(Nc1ccc(Oc2ccnc3cc(OCCCN4CCOCC4)c4c(c23)OCCO4)cc1Cl)c1cccn(-c2ccc(F)cc2)c1=O [Example 143, N-(2-chloro-4-((5-(3-morpholinopropoxy)-2,3-dihydro-[1,4]dioxino[2,3-f]quinolin-10-yl)oxy)phenyl)-1-(4-fluorophenyl)-2-oxo-1,2-dihydropyridine-3-carboxamide]
≤ 50	500 to 5000		CCn1cc(C(=O)Nc2ccc(Oc3ccnc4cc(OCCOC)c5c(c34)OCCO5)cc2)c(=O)n(-c2ccc(F)cc2)c1=O [Example 148, N-(4-((5-(2-methoxyethoxy)-2,3-dihydro-[1,4]dioxino[2,3-f]quinolin-10-yl)oxy)phenyl)-3-(4-fluorophenyl)-1-ethyl-2,4-dioxo-1,2,3,4-tetrahydropyrimidine-5-carboxamide]
≤ 50		< 50	Cn1cc(C(=O)Nc2ccc(Oc3ccnc4cc(OCC(C)(C)O)c5c(c34)OCCO5)cc2Cl)c(=O)n(-c2ccc(F)cc2)c1=O [Example 141, N-(2-chloro-4-((5-(2-hydroxy-2-methylpropoxy)-2,3-dihydro-[1,4]dioxino[2,3-f]quinolin-10-yl)oxy)phenyl)-3-(4-fluorophenyl)-1-methyl-2,4-dioxo-1,2,3,4-tetrahydropyrimidine-5-carboxamide]
